Assay results from patent publication US20230183774A1, “COLORIMETRIC ASSAY FOR HIGH THROUGHPUT, FACILE AND RAPID ANTIMICROBIAL SUSCEPTIBILITIES TESTING” (Georgia Tech Research Corporation, priority 2021, published 2023).
≈ marks a conversion by molar mass, not a printed value. Read-outs that look alike come from different tables or passages of the source.

Assays:
Assay type in all cases: cell-based
E. coli strain Mu890 [1] = assay: Rapid colorimetric AST in spiked human whole blood / blood culture medium (colour change, near IR absorbance); conditions: 37° C.; for Susceptibility of Mu890 (colorimetric assay / near IR absorption): CLSI susceptible and resistant breakpoints, 2.55 × 10^4 CFU/mL in wells, 24 hours; for Susceptibility of Mu890 (colour change of blood): rapid colorimetric AST, CLSI breakpoint concentrations, 96-well plate, up to 24 hours incubation
Excerpt: (§1) The antibiotics concentration and the initial concentration of bacterial cells in the wells shown in FIG. 8A are tabulated in Table 3.

E. coli strain Mu890 [2] = assay: Standard broth microdilution (BMD), turbidity; conditions: validation of near IR experiment, 6×10^6 CFU/mL per well
Procedure: This color change results from the growth and presence of viable bacteria. When bacteria are resistant to the given antibiotic concentration, the color change is clearly observed. […] Results were validated by comparing with the gold standard BMD (FIGS. 4A and 4B). The gold standard BDM requires 16 to 24 hours incubation of plates after isolation of pure bacteria from positive blood cultures. In this case, the BMD was done by subculturing a pure colony of Mu890 in 4 mL CAMHB for 3 hours, followed by OD-600 adjustment such that the final concentration of bacteria is 6×10^6 CFU/mL per well. The plate was incubated at 37° C. for 18 hours and the image was acquired (FIG. 4B).

[3] = test system: E. coli sample (positive blood culture); assay: ChroMIC automated colorimetric MIC assay directly from positive blood culture; conditions: for MIC: Escherichia coli
Procedure: In order to prepare the contrast agent, sterile human whole blood (ZenBio, Research Triangle Park, N.C.) was stored at 4° C. and used within two weeks. […] For use as contrast, whole blood was diluted in sterile cation-adjusted Mueller Hinton broth (CAMHB; BD Biosciences, San Jose, Calif.) media (10% v/v).
Relating to an example colorimetric AST directly from positive blood culture —BacT/ALERT FA PLUS positive blood cultures were 500-fold diluted in CAMHB media and dispensed in the 96-well plate antibiotic panels. […] Final antibiotic concentrations ranged from approximately 0.03125 μg/mL to approximately 64 μg/mL along each row, with final dilution of blood cultures being 1000-fold. […] Wells H1, H9, and H10 are media-only negative controls, while wells H11 and H12 are no-antibiotic positive controls. […] ChroMIC ASTs were performed and compared (blinded) against both Vitek-2-determined MICs and vs. BMD. Each blood culture was also plated to retroactively determine inoculum size used.
Negative control wells with antibiotics and media only were allocated to ensure the sterility of media and antibiotics. Positive control wells were prepared to track bacterial growth without antibiotics and these controls were used in developing real-time automated analysis. After preparation of assays, the 96-well plates were covered with sterile sealing film (VWR International, Radnor, Pa.) and incubated at 37° C. for 18 hours with imaging as described below.
Example instruments used with the example colorimetric AST are disclosed herein. Four computer-controlled cameras (Raspberry Pi HQ) were connected to an ArduCam multicamera board in a Raspberry Pi 4B computer running the latest version of Raspian operating system. Within an incubator held at approximately 37° C., 96-well microtiter plates were held in 3D-printed holders, approximately 10 cm above the camera. A low distortion wide-angle lens was used to image microtiter plates from below, with LED illumination from above. Software collected images once every 15 minutes from each active camera over an 18-hour period. Images were analyzed both visually and by computer for red, green, and blue channel pixel intensities. Automated well detection was performed with OpenCV in python based on color value and the two most significant principal color components within each well were calculated and used to determine positive versus negative bacterial growth. […] SVM-derived probabilities were used to determine growth or no growth in each well. The left—most well in each row maintaining bright red color (no growth) was taken as the MIC.
ChroMIC assays were automated to acquire one image every 15 minutes over 18 hours. […] Wells can be automatically detected based on their color and the mean RGB color values can be taken from the average color of a 40×40 pixel area around each well centroid. Principal components using RGB values as input dimensions can be calculated for the wells in each image. […] Wells H1-H10 on each image and all wells (A1-H12) from the first hour (5 images—all before growth occurs) can be used as negative control wells. […] Since PCs are calculated for each image, all positive and negative controls are rotated into the current image PC space. A grid search can be performed to find the optimal SVM discriminant (FIG. 20B), and probabilities are used to assign growth (+) or no growth (−) for each well.
FIGS. 20-23 show aspects of automated real-time ChroMIC assay of an E. coli sample. An example of acquired images at different times (0 hours, 4 hours, 6 hours, 8 hours, 10 hours, 12 hours and 18 h) is shown in FIG. 19. […] This enables labels and MIC determinations for each antibiotic at each time point.

[4] = test system: P. aeruginosa strain PA46; assay: Standard broth microdilution (BMD); conditions: 6×10^6 CFU/mL per well
Procedure: as §1
The bacterial density in the standard BMD method was 6×10^6 CFU/mL per well before incubation, while the bacterial density in the colorimetric assay before the incubation is given in Table 3.

[5] = real-time Bayesian updated MIC, 4 hour, read-out: MIC (4 hour)
[6] = real-time Bayesian updated MIC, 6 hour, read-out: MIC (6 hour)
[7] = real-time Bayesian updated MIC, 8 hour, read-out: MIC (8 hour)
[8] = real-time Bayesian updated MIC, 10 hour, read-out: MIC (10 hour)
[9] = real-time Bayesian updated MIC, 12 hour, read-out: MIC (12 hour)
[10] = real-time Bayesian updated MIC, 16 hour, read-out: MIC (16 hour)

Compound | Susceptibility of Mu890 (colorimetric assay / near IR absorption) (E. coli strain Mu890 [1]) | Susceptibility of Mu890 (standard BMD method) (E. coli strain Mu890 [2]) | MIC [3, 5] | MIC [3, 6] | MIC [3, 7] | MIC [3, 8] | MIC [3, 9] | MIC [3, 10] | also measured
NC[C@H]1O[C@H](O[C@H]2[C@H](O)[C@@H](O[C@H]3O[C@H](CO)[C@@H](O)[C@H](N)[C@H]3O)[C@H](N)C[C@@H]2N)[C@H](N)C[C@@H]1O [Tobramycin, tobramycin] | susceptible | susceptible | 0.5 µg/mL (≈ 1.07 µM) | 0.5 µg/mL (≈ 1.07 µM) | 0.5 µg/mL (≈ 1.07 µM) | 0.5 µg/mL (≈ 1.07 µM) | 1 µg/mL (≈ 2.14 µM) | 1 µg/mL (≈ 2.14 µM) | Susceptibility of Mu890 (colour change of blood) (E. coli strain Mu890 [1]): sensitive
CO/N=C(\C(=O)N[C@@H]1C(=O)N2C(C(=O)[O-])=C(C[N+]3(C)CCCC3)CS[C@H]12)c1csc(N)n1 [Cefepime, cefepime] |  |  |  |  |  |  |  |  | MIC ([3]; 4 h, read-out: MIC (4 hour)): ≤ 0.0312 µg/mL; MIC ([3]; 6 h, read-out: MIC (6 hour)): ≤ 0.0312 µg/mL; MIC ([3]; 8 h, read-out: MIC (8 hour)): ≤ 0.0312 µg/mL; MIC ([3]; 10 h, read-out: MIC (10 hour)): ≤ 0.0312 µg/mL; MIC ([3]; 12 h, read-out: MIC (12 hour)): ≤ 0.0312 µg/mL; MIC ([3]; 16 h, read-out: MIC (16 hour)): ≤ 0.0312 µg/mL
NCC[C@H](O)C(=O)N[C@@H]1C[C@H](N)[C@@H](O[C@H]2O[C@H](CN)[C@@H](O)[C@H](O)[C@H]2O)[C@H](O)[C@H]1O[C@H]1O[C@H](CO)[C@@H](O)[C@H](N)[C@H]1O [Amikacin, amikacin] |  |  | 1 µg/mL (≈ 1.71 µM) | 1 µg/mL (≈ 1.71 µM) | 1 µg/mL (≈ 1.71 µM) | 2 µg/mL (≈ 3.42 µM) | 2 µg/mL (≈ 3.42 µM) | 2 µg/mL (≈ 3.42 µM) | 
C[C@@H](O)[C@H]1C(=O)N2C(C(=O)O)=C(S[C@@H]3CN[C@H](C(=O)N(C)C)C3)[C@H](C)[C@H]12 [Meropenem, meropenem] | susceptible | susceptible | 0.0625 µg/mL (≈ 0.163 µM) | ≤ 0.0312 µg/mL | ≤ 0.0312 µg/mL | ≤ 0.0312 µg/mL | ≤ 0.0312 µg/mL | ≤ 0.0312 µg/mL | 
Cc1nnc(SCC2=C(C(=O)O)N3C(=O)[C@@H](NC(=O)Cn4cnnn4)[C@H]3SC2)s1 [cefazolin] |  |  |  |  |  |  |  |  | Susceptibility of PA46 (standard BMD method) [4]: resistant
gentamicin |  |  |  |  |  |  |  |  | MIC (4 hour) ([3]; real-time Bayesian updated MIC, 4 hour): 0.5 µg/mL; MIC (6 hour) ([3]; real-time Bayesian updated MIC, 6 hour): 0.5 µg/mL; MIC (8 hour) ([3]; real-time Bayesian updated MIC, 8 hour): 0.5 µg/mL; MIC (10 hour) ([3]; real-time Bayesian updated MIC, 10 hour): 1 µg/mL; MIC (12 hour) ([3]; real-time Bayesian updated MIC, 12 hour): 1 µg/mL; MIC (16 hour) ([3]; real-time Bayesian updated MIC, 16 hour): 1 µg/mL
CC(C)(O/N=C(\C(=O)N[C@@H]1C(=O)N2C(C(=O)[O-])=C(C[n+]3ccccc3)CS[C@H]12)c1csc(N)n1)C(=O)O [Ceftazidime, ceftazidime] | susceptible | susceptible | 0.25 µg/mL (≈ 0.457 µM) | 0.25 µg/mL (≈ 0.457 µM) | 0.125 µg/mL (≈ 0.229 µM) | 0.125 µg/mL (≈ 0.229 µM) | 0.125 µg/mL (≈ 0.229 µM) | 0.125 µg/mL (≈ 0.229 µM) | Susceptibility of Mu890 (colour change of blood) (E. coli strain Mu890 [1]): sensitive
C[C@H]1COc2c(N3CCN(C)CC3)c(F)cc3c(=O)c(C(=O)O)cn1c23 [Levofloxacin, levofloxacin] |  |  | ≤ 0.0312 µg/mL | ≤ 0.0312 µg/mL | ≤ 0.0312 µg/mL | ≤ 0.0312 µg/mL | ≤ 0.0312 µg/mL | ≤ 0.0312 µg/mL | 
